Assay results reported in patent publication US7772241B2, “Variolin derivatives and their use as antitumor agents” (Pharma Mar S.A., priority 2001, dated 2010).
Where two headings read alike, the source gives them in different places.

Experiments:
K-562 = assay: Inhibition of cells growth by colorimetric (SRB) assay, K-562; details: for GI50 / CC50: Homo sapiens, K562, 48 h; for GI50: read-out: K-562 GI50, SRB assay, 48 hours exposure; for K-562 TGI: SRB assay, 48 hours exposure
How it was run: (§1)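 Human tumour cells in RPMI 1640 with 10% FBS were seeded at 5×10^3 cells/well, allowed to attach for 18 h, then exposed to samples at 10 to 10^−8 μg/ml for 48 h. Growth was measured by SRB staining after TCA fixation, with absorbance read at 490 nm in triplicate wells.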

A-549 = assay: Inhibition of cells growth by colorimetric (SRB) assay, A-549; details: for GI50 / CC50: Homo sapiens, A549, 48 h; for GI50: read-out: A-549 GI50, SRB assay, 48 hours exposure; for A-549 TGI: SRB assay, 48 hours exposure
How it was run: as §1

SK-MEL-28 = assay: Inhibition of cells growth by colorimetric (SRB) assay, SK-MEL-28; details: for GI50 / CC50: Homo sapiens, SK-MEL-28, 48 h; for GI50: read-out: MEL-28 GI50, SRB assay, 48 hours exposure; for MEL-28 TGI: SRB assay, 48 hours exposure
How it was run: as §1

HT-29 = assay: Inhibition of cells growth by colorimetric (SRB) assay, HT-29; details: for GI50 / CC50: Homo sapiens, HT-29, 48 h; for GI50: read-out: HT-29 GI50, SRB assay, 48 hours exposure; for HT-29 TGI: SRB assay, 48 hours exposure
How it was run: as §1

LoVo = assay: Inhibition of cells growth by colorimetric (SRB) assay, LoVo; details: for GI50 / CC50: Homo sapiens, LoVo, 48 h; for GI50: read-out: LOVO GI50, SRB assay, 48 hours exposure; for LOVO TGI: SRB assay, 48 hours exposure
How it was run: as §1

LoVo-Dox = assay: Inhibition of cells growth by colorimetric (SRB) assay, LoVo-Dox; details: for GI50 / CC50: Homo sapiens, 48 h; for GI50: read-out: LOVO-DOX GI50, SRB assay, 48 hours exposure; for LOVO-DOX TGI: SRB assay, 48 hours exposure
How it was run: as §1

DU-145 = assay: Inhibition of cells growth by colorimetric (SRB) assay, DU-145; details: for GI50 / CC50: Homo sapiens, DU-145, 48 h; for GI50: read-out: DU-145 GI50, SRB assay, 48 hours exposure; for DU-145 TGI: SRB assay, 48 hours exposure
How it was run: as §1

LNCaP = assay: Inhibition of cells growth by colorimetric (SRB) assay, LNCaP; details: for GI50 / CC50: Homo sapiens, LNCaP, 48 h; for GI50: read-out: LN-caP GI50, SRB assay, 48 hours exposure; for LN-caP TGI: SRB assay, 48 hours exposure
How it was run: as §1

SK-BR-3 = assay: Inhibition of cells growth by colorimetric (SRB) assay, SK-BR-3; details: for GI50 / CC50: Homo sapiens, SK-BR-3, 48 h; for GI50: read-out: SK-BR-3 GI50, SRB assay, 48 hours exposure; for SK-BR-3 TGI: SRB assay, 48 hours exposure
How it was run: as §1

IGROV-1 = assay: Inhibition of cells growth by colorimetric (SRB) assay, IGROV-1; details: for GI50 / CC50: Homo sapiens, IGROV-1, 48 h; for GI50: read-out: IGROV GI50, SRB assay, 48 hours exposure; for IGROV TGI: SRB assay, 48 hours exposure
How it was run: as §1

IGROV-ET = assay: Inhibition of cells growth by colorimetric (SRB) assay, IGROV-ET; details: for GI50 / CC50: Homo sapiens, 48 h; for GI50: read-out: IGROV-ET GI50, SRB assay, 48 hours exposure; for IGROV-ET TGI: SRB assay, 48 hours exposure
How it was run: as §1

HeLa = assay: Inhibition of cells growth by colorimetric (SRB) assay, HeLa; details: for GI50: Homo sapiens, HeLa, 48 h, read-out: HELA GI50, SRB assay, 48 hours exposure; for HELA TGI: SRB assay, 48 hours exposure
Text: (§2) The finality of these assays is to interrupt the growth of a “in vitro” tumor cell culture by means a continued exhibition of the cells to the sample to be testing.
(§3) This form of the assay employs 96 well cell culture microplates of 9 mm diameter (Faircloth, 1988; Mosmann, 1983). Most of the cell lines are obtained from American Type Culture Collection (ATCC) derived from different human cancer types.
(§4) Cells are maintained in RPMI 1640 10% FBS, supplemented with 0.1 g/l penicillin and 0.1 g/l streptomycin sulphate and then incubated at 37° C., 5% CO2 and 98% humidity. For the experiments, cells were harvested from subconfluent cultures using trypsin and resuspended in fresh medium before plating.
(§5) Cells are seeded in 96 well microtiter plates, at 5×10^3 cells per well in aliquots of 195 μl medium, and they are allowed to attach to the plate surface by growing in drug free medium for 18 hours. Afterward, samples are added in aliquots of 5 μl in a ranging from 10 to 10^−8 μg/ml, dissolved in DMSO/EtOH/PBS (0.5:0.5:99). After 48 hours exposure, the antitumor effect are measured by the SRB methodology: cells are fixed by adding 50 μl of cold 50% (wt/vol) trichloroacetic acid (TCA) and incubating for 60 minutes at 4° C. Plates are washed with deionized water and dried. One hundred μl of SRB solution (0.4% wt/vol in 1% acetic acid) is added to each microtiter well and incubated for 10 minutes at room temperature. Unbound SRB is removed by washing with 1% acetic acid. Plates are air dried and bound stain is solubilized with Tris buffer. Optical densities are read on a automated spectrophotometric plate reader at a single wavelength of 490 nm.
(§6) The values for mean +/−SD of data from triplicate wells are calculated. Some parameters for cellular responses can be calculated: GI=growth inhibition, TGI=total growth inhibition (cytostatic effect) and LC=cell killing (cytotoxic effect).

HeLa-APL = assay: Inhibition of cells growth by colorimetric (SRB) assay, HeLa-APL; details: for GI50 / CC50: Homo sapiens, 48 h; for HELA-APL TGI: SRB assay, 48 hours exposure
Text: as §2, §3, §4, §5, §6

PANC-1 = assay: Inhibition of cells growth by colorimetric (SRB) assay, PANC-1; details: for GI50 / CC50: Homo sapiens, PANC-1, 48 h; for GI50: read-out: PANC-1 GI50, SRB assay, 48 hours exposure; for PANC-1 TGI: SRB assay, 48 hours exposure
How it was run: as §1

SMILES: Cl.Nc1nccc(-c2c3c(O)ccnc3n3c(N)nccc23)n1 [Compound 54]
- GI50 (K-562): 1670 nM
- CC50 (K-562; read-out: K-562 LC50): 27300 nM
- K-562 TGI (K-562): 1.44E−05
- GI50 (A-549): 339 nM
- CC50 (A-549; read-out: A-549 LC50): 27300 nM
- A-549 TGI (A-549): 1.10E−06
- GI50 (SK-MEL-28): 945 nM
- CC50 (SK-MEL-28; read-out: MEL-28 LC50): 11400 nM
- MEL-28 TGI (SK-MEL-28): 3.22E−06
- GI50 (HT-29): 1690 nM
- CC50 (HT-29; read-out: HT-29 LC50): 27300 nM
- HT-29 TGI (HT-29): 8.71E−06
- GI50 (LoVo): 266 nM
- CC50 (LoVo; read-out: LOVO LC50): 27300 nM
- LOVO TGI (LoVo): 1.04E−06
- GI50 (LoVo-Dox): 155 nM
- CC50 (LoVo-Dox; read-out: LOVO-DOX LC50): 27300 nM
- LOVO-DOX TGI (LoVo-Dox): 7.32E−07
- GI50 (DU-145): 360 nM
- CC50 (DU-145; read-out: DU-145 LC50): 27300 nM
- DU-145 TGI (DU-145): 1.32E−06
- GI50 (LNCaP): 287 nM
- CC50 (LNCaP; read-out: LN-caP LC50): 1820 nM
- LN-caP TGI (LNCaP): 7.24E−07
- GI50 (SK-BR-3): 530 nM
- CC50 (SK-BR-3; read-out: SK-BR-3 LC50): 2670 nM
- SK-BR-3 TGI (SK-BR-3): 1.19E−06
- GI50 (IGROV-1): 440 nM
- CC50 (IGROV-1; read-out: IGROV LC50): 27300 nM
- IGROV TGI (IGROV-1): 1.37E−06
- GI50 (IGROV-ET): 421 nM
- CC50 (IGROV-ET; read-out: IGROV-ET LC50): 27300 nM
- IGROV-ET TGI (IGROV-ET): 1.48E−06
- GI50 (HeLa): 57.3 nM
- HELA TGI (HeLa): 1.17E−07
- GI50 (HeLa-APL; read-out: HELA-APL GI50): 61.2 nM
- CC50 (HeLa-APL; read-out: HELA-APL LC50): 270 nM
- HELA-APL TGI (HeLa-APL): 1.28E−07
- GI50 (PANC-1): 871 nM
- CC50 (PANC-1; read-out: PANC-1 LC50): 27300 nM
- PANC-1 TGI (PANC-1): 3.28E−06

SMILES: CSc1nccc(-c2c3cccnc3n3c(N)nccc23)n1.Cl [Compound 68]
- GI50 (K-562): 2510 nM
- CC50 (K-562; read-out: K-562 LC50, SRB assay, 48 hours exposure): 29000 nM
- K-562 TGI (K-562): 1.84E−05
- GI50 (A-549): 1290 nM
- CC50 (A-549; read-out: A-549 LC50, SRB assay, 48 hours exposure): 29000 nM
- A-549 TGI (A-549): 5.10E−06
- GI50 (SK-MEL-28): 1080 nM
- CC50 (SK-MEL-28; read-out: MEL-28 LC50, SRB assay, 48 hours exposure): 14400 nM
- MEL-28 TGI (SK-MEL-28): 4.49E−06
- GI50 (HT-29): 1140 nM
- CC50 (HT-29; read-out: HT-29 LC50, SRB assay, 48 hours exposure): 29000 nM
- HT-29 TGI (HT-29): 6.93E−06
- GI50 (LoVo): 539 nM
- CC50 (LoVo; read-out: LOVO LC50, SRB assay, 48 hours exposure): 2590 nM
- LOVO TGI (LoVo): 1.18E−06
- GI50 (LoVo-Dox): 1150 nM
- CC50 (LoVo-Dox; read-out: LOVO-DOX LC50, SRB assay, 48 hours exposure): 29000 nM
- LOVO-DOX TGI (LoVo-Dox): 2.43E−06
- GI50 (DU-145): 365 nM
- CC50 (DU-145; read-out: DU-145 LC50, SRB assay, 48 hours exposure): 2900 nM
- DU-145 TGI (DU-145): 1.03E−06
- GI50 (LNCaP): 310 nM
- CC50 (LNCaP; read-out: LN-caP LC50, SRB assay, 48 hours exposure): 4410 nM
- LN-caP TGI (LNCaP): 1.05E−06
- GI50 (SK-BR-3): 641 nM
- CC50 (SK-BR-3; read-out: SK-BR-3 LC50, SRB assay, 48 hours exposure): 16100 nM
- SK-BR-3 TGI (SK-BR-3): 3.42E−06
- GI50 (IGROV-1): 1720 nM
- CC50 (IGROV-1; read-out: IGROV LC50, SRB assay, 48 hours exposure): 29000 nM
- IGROV TGI (IGROV-1): 1.27E−05
- GI50 (IGROV-ET): 2820 nM
- CC50 (IGROV-ET; read-out: IGROV-ET LC50, SRB assay, 48 hours exposure): 29000 nM
- IGROV-ET TGI (IGROV-ET): 1.44E−05
- GI50 (HeLa): 10 nM
- HELA TGI (HeLa): 3.19E−08
- GI50 (HeLa-APL; read-out: HELA-APL GI50, SRB assay, 48 hours exposure): 10.3 nM
- CC50 (HeLa-APL; read-out: HELA-APL LC50, SRB assay, 48 hours exposure): 655 nM
- HELA-APL TGI (HeLa-APL): 5.68E−08
- GI50 (PANC-1): 588 nM
- CC50 (PANC-1; read-out: PANC-1 LC50, SRB assay, 48 hours exposure): 29000 nM
- PANC-1 TGI (PANC-1): 1.15E−05
